# According to patent publication US5039662A, “Peptide with anti-metastasis activity” (Monsanto, priority 1989, dated 1991):
# Peptide text beside a SMILES is read from it.
# Assays:
# [1] = test system: B16F10 melanoma cells; test: Lung tumor colonization assay; assay type: in vivo, C57BL/6 female mice; conditions: B16F10 cells (5×10^5) mixed with 0.1 mL peptide at 5 mg/mL, tail vein injection, lungs counted after three weeks, FIG. 2
# Description: B16F10 melanoma cells, obtained from I. J. Fidler, M. D., Anderson Hospital, Houston, Tex., are propagated under standard culture conditions. The lung tumor colonization assay is carried out as described in Fidler, I. J., Nature (London) (New Biol) 242:148 (1973). Peptides are dissolved at 5 mg/mL in PBS and are filter-sterilized. The suspension of B16F10 cells (5×10^5) in 0.1 mL of DMEM is mixed with 0.1 mL of the peptide, (or 0.1 ml PBS in Control) incubated for 5 minutes at room temperature, and then injected into the tail vein of syngeneic C57BL/6 female mice (Jackson Labs., Bar Habor, Me.) at 6 weeks of age. Each treatment and control group consists of eight mice. Three weeks after the injections, the mice are killed and the number of pulmonary tumors on the surface of the lungs counted.
# [2] = test system: HT-1080 cells; test: In vitro cell attachment assay; assay type: cell-based; conditions: HT-1080 human fibrosarcoma cells; attachment to peptide-coated wells / inhibition of attachment to laminin; FIG. 1
# Description: HT-1080 cells from a human fibrosarcoma (Rasheed, S. et al., Cancer (Philadelphia) 33:1027 (1974) are maintained in Dulbecco's modified Eagle's medium (DMEM) supplemented with 10% fetal calf serum. After the cells are grown to 80% confluency, they are washed with 0.02M phosphate buffer, pH 7.4, without CA ^30 2 and Mg^30 2 and detached with a solution of 0.025% trypsin plus 0.025% ethylenediaminetetraacetic acid (EDTA; GIBCO). The cells are then pelleted by lowspeed centrifugation and resuspended in Eagle's minimal essential medium (EMEM) containing 0.02% bovine serum albumin (BSA, Sigma Chemical Co., St. Louis, Mo.). Cell attachment assays are performed as described in Klebe, R. J. Nature (London) 250:248 (1974), on tissue culture plastic substrates by using 16-mm Falcon tissue culture wells (Fisher Scientific Co., Pittsburg, Pa.) incubated with various peptides or with laminin in 1 mL of EMEM containing 0.02% BSA for 1 or 2 hours at 37° C. Cells (10^5 in 0.1 1 mL) are added to the wells, and the solution is incubated for an additional 1 hour at 37° C. in 95% air and 5% CO2. Subsequently, the wells are rinsed 3 times with 1 mL of phosphate-buffered saline (PBS) to remove unattached cells. Attached cells are trypsinized and counted electronically (Coulter, ZBI). […]
smiles,measurement,setting,value
CC[C@H](C)[C@H](NC(=O)[C@H](Cc1ccc(O)cc1)NC(C)=O)C(=O)NCC(=O)N[C@@H](CO)C(=O)N[C@@H](CCCNC(=N)N)C(N)=O [AcYIGSR-NH2] (Ac-YIGSR-NH2),antimetastatic effectiveness (number of pulmonary tumors on the surface of the lungs) relative to YIGSR-NH2,[1],at least twice as effective as YIGSR-NH2
same,antimetastatic effectiveness (number of pulmonary tumors on the surface of the lungs) relative to YIGSR-NH2,[1]; listed as peptide of the invention,at least twice as effective as linear YIGSR-NH2
same,cell adhesion activity,[2],having cell adhesion activity
